Like-named read-outs stand apart in the source and are kept apart here.
Assays:
[1] = acute toxicity in the mouse, intraperitoneal; format: in vivo, Souris; details: mouse, in vivo, ip, voie intrapéritonéale; for LD50 at 48 h: souris femelles, read-out: DL 50; for mortality at 48 h: read-out: Mortalité %
Excerpt: (§1) Les produits ont été administrés par voie intrapéritonéale à des souris femelles dont le poids variait de 18 à 30 g.
(§2) Les animaux injectés ont été maintenus dans une salle thermostatée, nourris et abreuvés à volonté.
(§3) La mortalité a été relevée à 1 heure, 4 heures, 24 heures et 48 heures.

souris femelles = experiment: acute toxicity in the mouse, intraperitoneal; format: in vivo; details: voie intrapéritonéale, dead mice of the group
Excerpt: as §1, §2, §3

Souris [2] = experiment: tetrabenazine hypothermia; format: in vivo
Experimental: (§4) Ce test permet de révéler également une activité antidépressive avec l'avantage d'une lecture plus rapide qu'avec la réserpine.
Les produits sont injectés 30 minutes avant l'administration de tétrabénazine.
Les températures sont relevées aux temps : 0, 30 minutes, 60 minutes, 90 minutes et 120 minutes.
(§5) Les souris sont réparties par lots de 5.
Les températures sont relevées avant l'injection de tétrabénazine, 30 minutes, 60 minutes, 90 minutes et 120 minutes après.
(§6) Le lot témoin comprend 20 souris.

Souris [3] = experiment: tetrabenazine ptosis; format: in vivo; details: for Ptosis 30 minutes / Ptosis 60 minutes / Ptosis 90 minutes / Ptosis 120 minutes: score 0-4 per eye
Experimental: as §4, §5
Le ptosis est noté avant l'injection de tétrabénazine, 30 minutes, 60 minutes, 90 minutes et 120 minutes après.
On a adopté la notation suivante : • - 0 : pour un oeil ouvert, • - 1 : pour un oeil fermé au quart, • - 2 : pour un oeil fermé à moitié, • - 3 : pour un oeil fermé aux trois-quarts, • - 4 : pour un oeil fermé complètement.
as §6

Souris [4] = experiment: antireserpine activity: reserpine hypothermia; format: in vivo; details: réserpine 5 mg/kg i.p. 17 h before
Summary of the method: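 Mice in groups of 4 given reserpine 5 mg/kg i.p.; 17 hours later rectal temperature taken by thermocouple and test substance or solvent given i.p. Temperature measured hourly for 4 hours. Reported as mean temperature changes at 1, 2, 3 and 4 hours, their 4-hour sum, and percent rise versus solvent controls.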

chiens anesthésiés = experiment: cardiovascular toxicity in the anaesthetised dog, slow perfusion; format: in vivo, Chien; details: chiens anesthésiés, perfusion lente
Experimental: L'étude du composé 2 a été effectuée sur 7 chiens anesthésiés à des doses allant de 4 à 20 mg/kg en perfusion lente.

[5] = ip, 2 h, hypothermie, product i.p. 50 mg/kg 30 min before tétrabénazine 32 mg/kg i.v., read-out: % de protection
[6] = product i.p. 50 mg/kg 30 min before tétrabénazine 32 mg/kg i.v.
[7] = ip, 2 h, ptosis, product i.p. 50 mg/kg 30 min before tétrabénazine 32 mg/kg i.v., read-out: % de protection
[8] = ip, 4 h, product i.p. 50 mg/kg, read-out: % d'augmentation par rapport aux témoins
[9] = product i.p. 25 mg/kg 30 min before tétrabénazine 32 mg/kg i.v.

SMILES: CN(C)CCCN1c2ccccc2-c2onc(-c3ccccc3)c2-c2ccccc21 [compound 18]
- LD50 at 48 h [1]: 225 mg/kg
- mortality at 48 h ([1]; 50 mg/kg): 0%
- mortality at 48 h ([1]; 100 mg/kg): 0%
- mortality at 48 h ([1]; 150 mg/kg): 0%
- mortality at 48 h ([1]; 200 mg/kg): 100%
- mortality at 48 h ([1]; 250 mg/kg): 100%
- Mortalité en 1 heure (souris femelles; 50 mg/kg): 0
- Mortalité en 48 h. (souris femelles; 50 mg/kg): 0
- Mortalité en 1 heure (souris femelles; 100 mg/kg): 0
- Mortalité en 48 h. (souris femelles; 100 mg/kg): 0
- Mortalité en 1 heure (souris femelles; 150 mg/kg): 0
- Mortalité en 48 h. (souris femelles; 150 mg/kg): 0
- Mortalité en 1 heure (souris femelles; 200 mg/kg): 5
- Mortalité en 48 h. (souris femelles; 200 mg/kg): 5
- Mortalité en 1 heure (souris femelles; 250 mg/kg): 4
- Mortalité en 48 h. (souris femelles; 250 mg/kg): 5
- inhibition in vivo at 50 mg/kg (Souris [2]; [5]): 8%
- Température après tétrabénazine 30 minutes (Souris [2]; [6]): -3,1
- Température après tétrabénazine 60 minutes (Souris [2]; [6]): -1,8
- Température après tétrabénazine 90 minutes (Souris [2]; [6]): -1,9
- Température après tétrabénazine 120 minutes (Souris [2]; [6]): -1,1
- Température après tétrabénazine Total (Souris [2]; [6]): -7,9
- inhibition in vivo at 50 mg/kg (Souris [3]; [7]): 24%
- Ptosis Total (Souris [3]; [6]): 23
- Ptosis 30 minutes (Souris [3]; [6]): 3,6
- Ptosis 60 minutes (Souris [3]; [6]): 5,8
- Ptosis 90 minutes (Souris [3]; [6]): 6,4
- Ptosis 120 minutes (Souris [3]; [6]): 7,2
- change in vivo at 50 mg/kg (Souris [4]; [8]): 25%
- change in vivo at 150 mg/kg (Souris [4]; ip, 4 h, product i.p. 150 mg/kg, read-out: % d'augmentation par rapport aux témoins): 175%

SMILES: CN(C)CCN1c2ccccc2C=Cc2ccccc21 [compound 20, (β-diméthylaminoéthyl)-5 dibenzo [b,f] 5H azépine, reference compound]
- LD50 at 48 h [1]: 75 mg/kg
- mortality at 48 h ([1]; 50 mg/kg): 0%
- mortality at 48 h ([1]; 100 mg/kg): 60%
- mortality at 48 h ([1]; 200 mg/kg): 100%
- Mortalité en 1 heure (souris femelles; 50 mg/kg): 0
- Mortalité en 48 h. (souris femelles; 50 mg/kg): 0
- Mortalité en 1 heure (souris femelles; 100 mg/kg): 3
- Mortalité en 48 h. (souris femelles; 100 mg/kg): 3
- Mortalité en 1 heure (souris femelles; 200 mg/kg): 5
- Mortalité en 48 h. (souris femelles; 200 mg/kg): 5
- inhibition in vivo at 50 mg/kg (Souris [2]; [5]): 46%
- Température après tétrabénazine 30 minutes (Souris [2]; [6]): -3,1
- Température après tétrabénazine 60 minutes (Souris [2]; [6]): -0,2
- Température après tétrabénazine 90 minutes (Souris [2]; [6]): -0,3
- Température après tétrabénazine 120 minutes (Souris [2]; [6]): -1
- Température après tétrabénazine Total (Souris [2]; [6]): -4,6
- inhibition in vivo at 50 mg/kg (Souris [3]; [7]): 60%
- Ptosis Total (Souris [3]; [6]): 12,2
- Ptosis 30 minutes (Souris [3]; [6]): 2,2
- Ptosis 60 minutes (Souris [3]; [6]): 3,4
- Ptosis 90 minutes (Souris [3]; [6]): 3,2
- Ptosis 120 minutes (Souris [3]; [6]): 3,6
- change in vivo at 50 mg/kg (Souris [4]; [8]): 440%
- Augmentation de température en 4 h (Souris [4]; product i.p. 50 mg/kg): +10,8
- variation de température T= 2h (Souris [4]; product i.p. 50 mg/kg): +2,7
- variation de température T=3h (Souris [4]; product i.p. 50 mg/kg): +2
- variation de température T=4h (Souris [4]; product i.p. 50 mg/kg): +1

SMILES: CC(CN(C)C)CN1c2ccccc2C=Cc2ccccc21 (stereo not drawn) [compound 22, (méthyl-2 diméthylamino-3 propyl)-5 dibenzo [b,f] 5H azépine, reference compound]
- LD50 at 48 h [1]: 75 mg/kg
- mortality at 48 h ([1]; 25 mg/kg): 0%
- mortality at 48 h ([1]; 50 mg/kg): 20%
- mortality at 48 h ([1]; 100 mg/kg): 100%
- Mortalité en 1 heure (souris femelles; 25 mg/kg): 0
- Mortalité en 48 heures (souris femelles; 25 mg/kg): 0
- Mortalité en 1 heure (souris femelles; 50 mg/kg): 0
- Mortalité en 48 h. (souris femelles; 50 mg/kg): 1
- Mortalité en 1 heure (souris femelles; 100 mg/kg): 4
- Mortalité en 48 h. (souris femelles; 100 mg/kg): 5
- inhibition in vivo at 25 mg/kg (Souris [2]; ip, 2 h, hypothermie, product i.p. 25 mg/kg 30 min before tétrabénazine 32 mg/kg i.v., read-out: % de protection): 50%
- Température après tétrabénazine 30 minutes (Souris [2]; [9]): -3,5
- Température après tétrabénazine 60 minutes (Souris [2]; [9]): -0,1
- Température après tétrabénazine 90 minutes (Souris [2]; [9]): -0,6
- Température après tétrabénazine 120 minutes (Souris [2]; [9]): -0,1
- Température après tétrabénazine Total (Souris [2]; [9]): -4,3
- inhibition in vivo at 25 mg/kg (Souris [3]; ip, 2 h, ptosis, product i.p. 25 mg/kg 30 min before tétrabénazine 32 mg/kg i.v., read-out: % de protection): 11%
- Ptosis Total (Souris [3]; [9]): 26,8
- Ptosis 30 minutes (Souris [3]; [9]): 5,6
- Ptosis 60 minutes (Souris [3]; [9]): 6,8
- Ptosis 90 minutes (Souris [3]; [9]): 6,8
- Ptosis 120 minutes (Souris [3]; [9]): 7,6
- change in vivo at 25 mg/kg (Souris [4]; ip, 4 h, product i.p. 25 mg/kg, read-out: % d'augmentation par rapport aux témoins): 85%
- variation de température T= 2h (Souris [4]; product i.p. 25 mg/kg): +0,5
- variation de température T=3h (Souris [4]; product i.p. 25 mg/kg): +1
- variation de température T=4h (Souris [4]; product i.p. 25 mg/kg): +0,4

SMILES: CN(C)CCCN1c2ccccc2CCc2ccccc21 [imipramine, reference compound]
- retour vers les valeurs de départ des paramètres enregistrés, dès l'arrêt de l'injection (chiens anesthésiés): n'a pas été constatée

Reference: EP0063525A1, “Dibenzazepine tetracyclic derivatives, process for their preparation and pharmaceutical compositions containing them” (CENTRE NATIONAL DE LA RECHERCHE SCIENTIFIQUE (CNRS), priority 1981, dated 1982)
